Measurements taken from PMC9322761, “Design, Synthesis and Biological Characterization of Histone Deacetylase 8 (HDAC8) Proteolysis Targeting Chimeras (PROTACs) with Anti-Neuroblastoma Activity” (International Journal of Molecular Sciences, 2022).

Key:
HDAC1 = HDAC1 (Homo sapiens, UniProt Q13547); assay: HDAC1 degradation in SK-N-BE(2)-C cells (Western blot); settings: 6 h, up to 10 µM
Description: Total HDAC6, total HDAC1, total HDAC8, and acetyl-histone H4 expression levels, were assessed by Western blot. Total GAPDH protein levels served as a loading control (LC). * unspecific bands obtained through reprobing of the membrane.

HDAC6 = biological target: T1, HDAC6 (Homo sapiens, UniProt Q9UBN7); assay: HDAC6 degradation in SK-N-BE(2)-C cells (Western blot); settings: 6 h, up to 10 µM
T1 sequence (Q9UBN7 1-1215): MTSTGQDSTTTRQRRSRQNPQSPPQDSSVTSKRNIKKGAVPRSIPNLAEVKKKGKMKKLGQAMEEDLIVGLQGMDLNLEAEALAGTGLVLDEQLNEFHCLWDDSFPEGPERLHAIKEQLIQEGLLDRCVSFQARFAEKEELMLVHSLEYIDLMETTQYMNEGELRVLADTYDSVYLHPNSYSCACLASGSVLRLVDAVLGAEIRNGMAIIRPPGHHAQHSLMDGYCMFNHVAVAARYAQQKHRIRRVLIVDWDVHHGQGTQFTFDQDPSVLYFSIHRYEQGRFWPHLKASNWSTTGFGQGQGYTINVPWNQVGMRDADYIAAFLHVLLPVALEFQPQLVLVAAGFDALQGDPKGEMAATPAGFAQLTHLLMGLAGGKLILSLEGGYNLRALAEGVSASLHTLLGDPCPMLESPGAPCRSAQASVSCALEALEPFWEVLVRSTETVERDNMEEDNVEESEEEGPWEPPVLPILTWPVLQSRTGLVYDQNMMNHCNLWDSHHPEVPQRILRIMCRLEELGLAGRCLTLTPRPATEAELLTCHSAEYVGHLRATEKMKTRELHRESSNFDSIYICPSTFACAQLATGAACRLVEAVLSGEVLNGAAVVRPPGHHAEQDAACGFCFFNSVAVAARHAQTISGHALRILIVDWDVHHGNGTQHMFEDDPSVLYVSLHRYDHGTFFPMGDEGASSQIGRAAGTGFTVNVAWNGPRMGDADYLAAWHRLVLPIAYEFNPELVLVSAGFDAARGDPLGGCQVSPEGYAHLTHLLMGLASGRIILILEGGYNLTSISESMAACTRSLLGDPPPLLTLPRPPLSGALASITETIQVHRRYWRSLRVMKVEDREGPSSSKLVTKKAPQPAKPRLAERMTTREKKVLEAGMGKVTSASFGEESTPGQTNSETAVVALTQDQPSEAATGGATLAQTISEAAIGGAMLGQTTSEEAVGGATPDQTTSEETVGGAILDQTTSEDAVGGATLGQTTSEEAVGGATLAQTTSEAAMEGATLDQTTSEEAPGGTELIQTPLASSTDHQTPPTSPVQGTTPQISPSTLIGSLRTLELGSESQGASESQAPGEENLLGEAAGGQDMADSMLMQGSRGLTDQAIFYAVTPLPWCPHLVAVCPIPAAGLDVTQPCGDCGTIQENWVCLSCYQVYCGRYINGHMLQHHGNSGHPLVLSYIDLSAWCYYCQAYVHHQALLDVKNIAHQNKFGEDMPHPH
Description: Figure 6 (A) SK-N-BE(2)-C neuroblastoma cells were treated for indicated time points with 10 µM of PROTACs. Degradation of HDAC8 and acetylation of HDAC8 target was analyzed via Western blot. […] Acetylation of HDAC8 target SMC3 and HDAC6 target tubulin, as well as total HDAC8 levels, were assessed by Western blot. Quantified ac-SMC3 or ac-tubulin expression, respectively, was normalized to the respective tubulin loading control and to the solvent control (DMSO). This quantification is reflected by the numbers below each blot. […] Total HDAC6, total HDAC1, total HDAC8, and acetyl-histone H4 expression levels, were assessed by Western blot. Total GAPDH protein levels served as a loading control (LC). * unspecific bands obtained through reprobing of the membrane.
HDAC6 degradation and tubulin hyperacetylation by PROTACs and control compounds
Left: SK-N-BE(2)-C neuroblastoma cells were treated for 6 h with indicated PROTACs (10 µM
each). Total HDAC6, acetyl-tubulin and total tubulin (LC #1: loading control #1) expression levels,
were assessed by western blot. Total GAPDH protein levels served as a second loading control
(LC #2). Right: presentation of quantified acetyl-tubulin levels, normalized to the DMSO control

HDAC1, sequence (Q13547 whole entry): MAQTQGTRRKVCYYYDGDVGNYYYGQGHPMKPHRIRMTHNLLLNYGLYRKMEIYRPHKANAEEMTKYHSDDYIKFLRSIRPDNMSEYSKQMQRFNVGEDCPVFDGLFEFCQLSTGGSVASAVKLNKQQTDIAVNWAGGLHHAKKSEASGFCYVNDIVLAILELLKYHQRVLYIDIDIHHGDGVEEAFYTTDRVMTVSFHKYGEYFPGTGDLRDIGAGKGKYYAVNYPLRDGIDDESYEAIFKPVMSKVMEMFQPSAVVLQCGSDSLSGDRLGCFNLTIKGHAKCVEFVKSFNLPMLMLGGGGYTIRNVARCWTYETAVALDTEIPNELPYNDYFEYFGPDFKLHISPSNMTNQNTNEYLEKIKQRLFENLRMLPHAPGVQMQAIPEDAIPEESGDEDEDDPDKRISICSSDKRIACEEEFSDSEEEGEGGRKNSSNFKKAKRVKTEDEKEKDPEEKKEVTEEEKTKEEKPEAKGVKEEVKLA

COc1ccc(C(=O)NO)cc1NC(=O)c1ccc(NC(=O)CCCCCCCNc2cccc3c2C(=O)N(C2CCC(=O)NC2=O)C3=O)cc1 (centres unmarked) [CRBN_1b]
HDAC1 degradation (HDAC1): do not degrade
HDAC6 degradation (HDAC6): do not degrade
